Reference: US10336735B2, “Small molecule inhibitors of fibrosis” (THE CALIFORNIA INSTITUTE FOR BIOMEDICAL RESEARCH, priority 2014, dated 2019)

test system: primary human lung fibroblasts and primary rodent HSCs; assay: High content imaging assay (α-SMA staining, cell morphology) of fibroblast to myofibroblast transdifferentiation, confirmed by Western blot and RT-PCR; conditions: Homo sapiens, Fibroblast; imaging and western based activity
Method in brief: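 Primary human lung fibroblasts and primary rodent HSCs were serum-starved and then TGF-β-treated to drive transdifferentiation in 384-well format, with SB-431542 as positive control. Readouts were α-SMA immunofluorescence and cell morphology by high-content imaging, confirmed by Western blot and RT-PCR in 4-day, 4-point dose-response assays; EC50 values are graded.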

Row | Structure (SMILES) | EC50 [µM]
1 | CCC(C)n1ncn(-c2ccc(-c3ccc(OC[C@@H]4CO[C@@](Cn5nccn5)(c5ccc(Cl)cc5Cl)O4)cc3)cc2)c1=O (stereo partly shown) [Compound 8] | > 30
2 | CCC(C)n1ncn(-c2ccc(N3CCN(c4cccc(OC[C@@H]5CO[C@@](Cn6nccn6)(c6ccc(Cl)cc6Cl)O5)c4)CC3)cc2)c1=O (stereo partly shown) [Compound 78] | 0.5 to 5
3 | CCCC(C)n1ncn(-c2ccc(N3CCN(c4ccc(OC[C@@H]5CO[C@@](Cn6nccn6)(c6ccc(Cl)cc6Cl)O5)cc4)CC3)cc2)c1=O (stereo partly shown) [Compound 12] | 0.5 to 5
4 | CCC(C)n1ncn(-c2ccc(N3CCN(c4ccc(OC[C@@H]5CO[C@@](Cn6nccn6)(c6ccc(Cl)cc6Cl)O5)cc4)CC3)c(F)c2)c1=O (stereo partly shown) [Compound 69] | 0.5 to 5
5 | CCC(C)n1ncn(-c2ccc(N3CCN(c4ccc(OC[C@@H]5CO[C@@](Cc6ccnnc6)(c6ccccc6OC)O5)cc4)CC3)cc2)c1=O (stereo partly shown) [Compound 127] | < 0.5
6 | CCC(C)n1ncn(-c2ccc(N3CCN(c4ccc(OC(C)[C@@H]5CO[C@@](Cn6nccn6)(c6ccccc6)O5)cc4)CC3)cc2)c1=O (stereo partly shown) [Compound 140] | 5 to 30
7 | CC(=O)N1CCN(c2ccc(OC[C@@H]3CO[C@@](Cn4nccn4)(c4ccc(Cl)cc4Cl)O3)cc2)CC1 [Compound 4] | > 30
8 | CC[C@H](C)n1ncn(-c2ccc(N3CCN(c4ccc(OC[C@H]5CO[C@](Cn6cccn6)(c6ccccc6)O5)cc4)CC3)cc2)c1=O [Compound 170] | < 0.5
9 | CCC(C)n1ncn(-c2ccc(N3CCN(C[C@@H]4CO[C@@](Cn5nccn5)(c5ccc(Cl)cc5Cl)O4)CC3)cc2)c1=O (stereo partly shown) [Compound 7] | > 30
10 | CCC(C)n1ncn(-c2ccc(N3CCN(c4ccc(OC[C@@H]5CO[C@@](Cn6nccn6)(c6ccccc6)O5)cc4)CC3C)cc2)c1=O (stereo partly shown) [Compound 73] | 5 to 30
11 | N#Cc1cc(OC[C@H]2CO[C@](Cn3nccn3)(c3ccccc3)C2)ccc1N1CCN(c2ccc(-n3cnn(CC4CCCC4)c3=O)cc2)CC1 [Compound 146] | > 30
12 | CCC(C)n1ncn(-c2ccc(N3CCN(c4ccc(OC[C@@H]5CO[C@@](Cn6cccn6)(c6ccc(C#N)cc6C)O5)cc4)CC3)cc2)c1=O (stereo partly shown) [Compound 51] | < 0.5
13 | CCC(C)n1ncn(-c2ccc(OC[C@@H]3CO[C@@](Cn4nccn4)(c4ccc(Cl)cc4Cl)O3)cc2)c1=O (stereo partly shown) [Compound 6] | > 30
14 | CCC(C)n1ncn(-c2ccc(N3CCN(c4ccc(OC[C@@H]5CO[C@](Cc6ccnnc6)(c6ccccc6C)O5)cc4)CC3)cc2)c1=O (stereo partly shown) [Compound 116] | < 0.5
15 | O=c1n(-c2ccc(N3CCN(c4ccc(OC[C@H]5CO[C@](Cn6nccn6)(c6ccccc6)C5)cc4F)CC3)cc2)cnn1CC1CCCC1 [Compound 145] | 5 to 30
16 | CCC(C)n1ncn(-c2ccc(N3CCN(c4ccc(OC[C@@H]5CO[C@@](Cn6nccn6)(c6ncccn6)O5)cc4)CC3)cc2)c1=O (stereo partly shown) [Compound 38] | > 30
17 | O=c1n(-c2ccc(N3CCN(c4ccc(OC[C@@H]5CO[C@@](Cn6nccn6)(c6ccccc6)O5)cc4)CC3)cc2)cnn1CC1CCCC1 [Compound 20] | 5 to 30
18 | CCC(C)n1cnn(-c2ccc(N3CCN(c4ccc(OC[C@@H]5CO[C@@](Cc6ccccc6)(c6ccccc6)O5)cc4)CC3)cc2)c1=O (stereo partly shown) [Compound 150] | > 30
19 | CCC(C)n1ncn(-c2ccc(N3CCN(c4ccc(OC[C@@H]5CO[C@@](Cc6ccnnc6)(c6ccc(Cl)cc6)O5)cc4)CC3)cc2)c1=O (stereo partly shown) [Compound 123] | < 0.5
20 | CCC(C)n1ncn(-c2ccc(N3CCN(c4ccc(OC[C@@H]5CO[C@@](Cn6cccn6)(c6ccc(S(N)(=O)=O)cc6)O5)cc4)CC3)cc2)c1=O (stereo partly shown) [Compound 99] | 5 to 30
21 | CCC(CC)n1ncn(-c2ccc(N3CCN(c4ccc(OC[C@@H]5CO[C@@](Cn6cccn6)(c6ccc(C#N)cc6C)O5)cc4)CC3)cc2)c1=O [Compound 176] | < 0.5
22 | CCC(C)n1ncn(-c2ccc(N3CCN(c4ccc(OC[C@@H]5CO[C@](Cc6ccnnc6)(c6ccc(C)cc6)O5)cc4)CC3)cc2)c1=O (stereo partly shown) [Compound 118] | 5 to 30
23 | CCC(C)n1ncn(-c2ccc(N3CCN(c4ccc(OC[C@@H]5CO[C@@](Cc6ccnnc6)(c6cc(Cl)cc(Cl)c6)O5)cc4)CC3)cc2)c1=O (stereo partly shown) [Compound 139] | < 0.5
24 | CCC(C)n1ncn(-c2ccc(N3CCN(c4ccc(OC[C@@H]5CO[C@@](Cn6nccn6)(c6cc(Cl)ccc6Cl)O5)cc4)CC3)cc2)c1=O (stereo partly shown) [Compound 33] | 0.5 to 5
25 | CCC(C)n1ncn(-c2ccc(N3CCN(c4ccc(OC[C@@H]5CO[C@@](Cn6nccn6)(c6ccc(Cl)cc6Cl)O5)nc4)CC3)cc2)c1=O (stereo partly shown) [Compound 54] | 0.5 to 5
26 | CCC(C)n1ncn(-c2ccc(N3CCN(c4ccc(OC[C@@H]5CO[C@@](Cc6ccnnc6)(c6cccc(C#N)c6)O5)cc4)CC3)cc2)c1=O (stereo partly shown) [Compound 130] | 0.5 to 5

Row | Structure (SMILES) | EC50 [µM]
27 | CCC(C)n1ncn(-c2ccc(N3CCN(c4ccc(OC[C@@H]5CO[C@@](Cc6ccnnc6)(c6ccc(OC(F)(F)F)cc6)O5)cc4)CC3)cc2)c1=O (stereo partly shown) [Compound 135] | < 0.5
28 | CCC(C)n1ncn(-c2ccc(N3CCN(c4ccc(OC[C@@H]5CO[C@@](Cn6cccn6)(c6ccccc6Cl)O5)cc4)CC3)cc2)c1=O (stereo partly shown) [Compound 83] | < 0.5
29 | CCC(C)n1ncn(-c2ccc(N3CCN(c4ccc(OC[C@@H]5CO[C@@](Cn6nccn6)(c6cc(Cl)ccc6C)O5)cc4)CC3)cc2)c1=O (stereo partly shown) [Compound 34] | 0.5 to 5
30 | CCC(C)n1ncn(-c2ccc(N3CCN(c4ccc(OC[C@@H]5CO[C@@](Cn6cccn6)(c6cccc(C)c6)O5)cc4)CC3)cc2)c1=O (stereo partly shown) [Compound 96] | < 0.5
31 | CCC(C)n1ncn(-c2ccc(N3CCN(c4ccc(OC[C@@H]5CO[C@@](Cn6nccn6)(c6ccc(Cl)cc6Cl)O5)cc4CN)CC3)cc2)c1=O (stereo partly shown) [Compound 55] | < 0.5
32 | CCC(C)n1ncn(-c2ccc(N3CCN(c4ccc(OC[C@@H]5CO[C@](Cc6ccnnc6)(c6ccccc6OC)O5)cc4)CC3)cc2)c1=O (stereo partly shown) [Compound 107] | 0.5 to 5
33 | CCC(C)n1ncn(-c2ccc(N3CCN(c4ccc(OC[C@@H]5CO[C@@](Cc6ccnnc6)(c6cccc(C)c6)O5)cc4)CC3)cc2)c1=O (stereo partly shown) [Compound 137] | < 0.5
34 | CCC(C)n1ncn(-c2ccc(N3CCN(c4ccc(OC[C@@H]5CO[C@@](Cn6nccn6)(c6ccc(Cl)cc6Cl)O5)cc4)CC3)cc2F)c1=O (stereo partly shown) [Compound 70] | 0.5 to 5
35 | CCC(C)n1ncn(-c2ccc(N3CCN(c4ccc(OC[C@@H]5CO[C@@](Cn6nccn6)(c6ccc(Br)cc6Br)O5)cc4)CC3)cc2)c1=O (stereo partly shown) [Compound 30] | 0.5 to 5
36 | CCC(CC)n1ncn(-c2ccc(N3CCN(c4ccc(OC[C@@H]5CO[C@@](Cn6nccn6)(c6ccc(Cl)cc6Cl)O5)cc4C#N)CC3)cc2)c1=O [Compound 152] | 5 to 30
37 | CCC(C)n1ncn(-c2ccc(N3CCN(c4ccc(OC[C@@H]5CO[C@](Cc6ccnnc6)(c6cccc(Cl)c6)O5)cc4)CC3)cc2)c1=O (stereo partly shown) [Compound 104] | 0.5 to 5
38 | CCC(C)n1ncn(-c2ccc(N3CCN(c4ccc(OC[C@@H]5CO[C@@](Cn6nccn6)(c6ccc(Cl)cc6Br)O5)cc4)CC3)cc2)c1=O (stereo partly shown) [Compound 31] | < 0.5
39 | CC[C@@H](C)n1ncn(-c2ccc(N3CCN(c4ccc(OC[C@H]5CO[C@](Cn6nccn6)(c6ccccc6)O5)cc4)CC3)cc2)c1=O [Compound 182, 4-(4-(4-(4-(((2R,4S)-2-((2H-1,2,3-triazol-2-yl)methyl)-2-phenyl-1,3-dioxolan-4-yl)methoxy)phenyl)piperazin-1-yl)phenyl)-(R)-1-sec-butyl-1H-1,2,4-triazol-5(4H)-one] | < 0.5
40 | O=c1n(-c2ccc(N3CCN(c4ccc(OC[C@H]5CO[C@](Cn6nccn6)(c6ccc(Cl)cc6Cl)O5)cc4F)CC3)cc2)cnn1CC1CCCC1 [Compound 163] | < 0.5
41 | CC[C@@H](C)n1ncn(-c2ccc(N3CCN(c4ccc(OC[C@@H]5CO[C@](Cn6nccn6)(c6ccccc6)O5)cc4)CC3)cc2)c1=O [Compound 189] | 5 to 30
42 | CCC(C)n1ncn(-c2ccc(N3CCN(c4ccc(OC[C@@H]5CO[C@@](Cn6nccn6)(c6ccc(C#N)cc6Cl)O5)cc4)CC3)cc2)c1=O (stereo partly shown) [Compound 26] | 5 to 30
43 | CCC(C)n1ncn(-c2ccc(N3CCN(c4ccc(OC[C@@H]5CO[C@@](Cn6cccn6)(c6cccc(OC)c6)O5)cc4)CC3)cc2)c1=O (stereo partly shown) [Compound 86] | < 0.5
44 | CCC(C)n1ncn(-c2ccc(N3CCN(c4ccc(OC[C@@H]5CO[C@](Cc6ccnnc6)(c6ccc(C(N)=O)cc6)O5)cc4)CC3)cc2)c1=O (stereo partly drawn) [Compound 121, 4-((2S,4R)-4-((4-(4-(4-(1-sec-butyl-5-oxo-1H-1,2,4-triazol-4(5H)-yl)phenyl)piperazin-1-yl)phenoxy)methyl)-2-(pyridazin-4-ylmethyl)-1,3-dioxolan-2-yl)benzamide] | 5 to 30
45 | CCC(C)n1ncn(-c2ccc(N3CCN(c4ccc(OC[C@@H]5CO[C@](Cc6ccnnc6)(c6ccc(C#N)cc6)O5)cc4)CC3)cc2)c1=O (stereo partly shown) [Compound 111] | 5 to 30
46 | CCC(C)n1ncn(-c2ccc(N3CCN(c4ccc(OC[C@@H]5CO[C@@](CCl)(c6ccc(Cl)cc6Cl)O5)cc4)CC3)cc2)c1=O (stereo partly shown) [Compound 39] | 0.5 to 5
47 | CCC(C)n1ncn(-c2ccc(N3CCN(c4ccc(OC[C@@H]5CO[C@@](Cn6nccn6)(c6ccccc6)C5)cc4)CC3)cc2)c1=O (stereo partly shown) [Compound 143] | 5 to 30
48 | CCC(CC)n1ncn(-c2ccc(N3CCN(c4ccc(OC[C@@H]5CO[C@@](Cn6nccn6)(c6ccccc6)O5)cc4C#N)CC3)cc2)c1=O [Compound 155] | < 0.5
49 | CCC(C)n1ncn(-c2ccc(N3CCN(c4ccc(OC[C@@H]5CO[C@@](Cn6nccn6)(c6ccccc6)O5)c(F)c4F)CC3)cc2)c1=O (stereo partly shown) [Compound 63] | 5 to 30
50 | CC[C@@H](C)n1ncn(-c2ccc(N3CCN(c4ccc(OC[C@@H]5CO[C@@](Cn6cccn6)(c6ccccc6)O5)cc4)CC3)cc2)c1=O [Compound 169] | < 0.5
51 | CCC(C)n1ncn(-c2ccc(N3CCN(c4ccc(OC[C@@H]5CO[C@@](Cn6cccn6)(c6ccc(C#N)cc6)O5)cc4)CC3)cc2)c1=O (stereo partly shown) [Compound 89] | 0.5 to 5

same assay, conditions: imaging and western based activity

Row | Structure (SMILES) | EC50 [µM]
52 | CCC(CC)n1ncn(-c2ccc(N3CCN(c4ccc(OC[C@@H]5CO[C@@](Cn6nccn6)(c6ccccc6)O5)cc4)CC3)cc2)c1=O [Compound 21] | < 0.5
